Assay results reported in US20250241347A1, “COMPOSITIONS AND METHODS FOR TASTE MODULATION” (INTERNATIONAL FLAVORS & FRAGRANCES INC., priority 2019, published 2025).

Tests used:
[1] = Masking effect on Reb A, trained panel; parameters: species or system human; conditions: base Reb A 200 ppm in water; for Masking Intensity: panel average, scale 0-5
Source text: (§1) Preparation of Test Samples: […], oroxylin A-7 glucouronide, wogonoside, baicalein, oroxylin A and wogonin were purchased commercially. S. baicalensis extract (“Extract”) and cabohydrase-treated S. baicalensis extract (“Treated Extract”) were obtained as above in Example 1.
(§2) Subsequently, all compounds and extracts were applied to different bases for evaluating their off-taste masking functions.
(§3) Testing Procedure: The masking effects on the off-tastes (bitterness, sourness, astringency, lingering and drying aftertaste, etc.) associated with various food components was evaluated by a group of 16 trained panelist. Each provided a rank of masking intensity using the intensity scales of 0 to 5, where 0 represents “no masking effect,” 1 represents “minimal masking intensity” and 5 represents “the most masking intensity.” The average of the reported making intensity is presented in the following examples.
A base solution of Reb A was prepared in water (200 ppm). […] The flavor profile of the Reb A solutions with compounds or extracts were further evaluated and is reported in the following: […]

[2] = Masking effect on Reb M, trained panel; parameters: species or system human; conditions: base Reb M 200 ppm in water; for Masking Intensity: panel average, scale 0-5
Source text: as §1, §2, §3
A base solution of Reb M was prepared in water (200 ppm). […] The flavor profile of the Reb M solutions with compounds or extracts were further evaluated and is reported in the following: […]

[3] = Masking effect on citric acid, trained panel; parameters: species or system human; conditions: base citric acid 300 ppm in water, test sample 0.5 ppm
Source text: as §1, §2, §3
A base solution of citric acid was prepared in water (300 ppm). […] The flavor profile of the citric acid solutions with compounds or extracts were further evaluated and is reported in the following: […]

[4] = Masking effect on pea protein, trained panel; parameters: species or system human; conditions: base TRUPRO pea protein 5% in water, test sample 0.5 ppm
Source text: as §1, §2, §3
A base solution of TRUPRO® pea protein (Solae LLC) was prepared in water (5%). […] The flavor profile of the pea protein solutions with compounds or extracts were further evaluated and is reported in the following: […]

[5] = Masking effect on sorbic acid, trained panel; parameters: species or system human; conditions: base sorbic acid 150 ppm in water, test sample 0.5 ppm
Source text: as §1, §2, §3
A base solution of sorbic acid was prepared in water (150 ppm). […] The flavor profile of the sorbic acid solutions with compounds or extracts were further evaluated and is reported in the following: […]

[6] = Masking effect on Acesulfame-K, trained panel; parameters: species or system human; conditions: base Acesulfame-K 300 ppm in water, test sample 0.5 ppm
Source text: as §1, §2, §3
A base solution of Acesulfame-K was prepared in water (300 ppm). […] The flavor profile of the Acesulfame-K solutions with compounds or extracts were further evaluated and is reported in the following: […]

[7] = Taste modulating activity of the individual compounds; conditions: individual compounds, Example 1
Protocol: With bio-transformation, most baicalin was converted to baicalein; oroxylin A glucuronide was converted to oroxylin A; and wogonoside was converted to wogonin. The activity of the individual compounds was also analyzed for taste modulating activity.

[8] = Masking effect on benzoic acid, trained panel; parameters: species or system human; conditions: base benzoic acid 250 ppm in water, test sample 0.5 ppm
Source text: as §1, §2, §3
A base solution of benzoic acid was prepared in water (250 ppm). […] The flavor profile of the benzoic acid solutions with compounds or extracts was further evaluated and is reported in the following: […]

[9] = Taste modulation in applications (Table 3), malic/citric acid base; conditions: base malic acid 1000 ppm and citric acid 2000 ppm in water; 1 ppm, composition composed only of wogonin

COc1c(O)cc(O)c2c(=O)cc(-c3ccccc3)oc12 [Wogonin, 5,7-dihydroxy-8-methoxyflavone]
Masking Intensity ([1]; test sample 0.001 ppm): 1
Flavor Profile ([1]; test sample 0.01 ppm): Slightly reduced astringency, licorice flavor
Masking Intensity ([1]; test sample 0.01 ppm): 2
Masking Intensity ([1]; test sample 0.1 ppm): 3
Masking Intensity ([1]; test sample 0.5 ppm): 4
Masking Intensity ([1]; test sample 1 ppm): 5
Masking Intensity ([1]; test sample 10 ppm): 3
Masking Intensity ([1]; test sample 50 ppm): 2
Masking Intensity ([2]; test sample 0.01 ppm): 1
Flavor Profile ([2]; test sample 0.1 ppm): Slightly reduced bitterness and lingering
Masking Intensity ([2]; test sample 0.1 ppm): 3
Flavor Profile ([2]; test sample 0.5 ppm): Reduced bitterness and lingering aftertaste,
Masking Intensity ([2]; test sample 0.5 ppm): 5
Flavor Profile ([2]; test sample 10 ppm): Slightly reduced lingering aftertaste, very
Masking Intensity ([2]; test sample 10 ppm): 2
Flavor Profile ([2]; test sample 50 ppm): Slightly reduced lingering aftertaste,
Masking Intensity ([2]; test sample 50 ppm): 1
Flavor Profile [3]: Reduced tart taste, more pleasant
Masking Intensity ([3]; panel average, scale 0-5): 4
Flavor Profile [4]: Reduced astringency and bitterness, less
Masking Intensity ([4]; panel average, scale 0-5): 5
Flavor Profile [5]: Reduced astringency, sourness, and drying
Masking Intensity ([5]; panel average, scale 0-5): 5
Flavor Profile [6]: Reduced bitterness and lingering aftertaste,
Masking Intensity ([6]; panel average, scale 0-5): 4
taste modulating activity [7]: more active
Flavor Profile [8]: Reduced astringency, sourness, and drying
Masking Intensity ([8]; panel average, scale 0-5): 5
Functions [9]: Masked the sharp sourness, added mouthfeel
